US8178678B2, “Bis-quaternary ammonium salts and methods for modulating neuronal nicotinic acetylcholine receptors” (University of Kentucky Research Foundation, priority 2006, dated 2012)
Read-outs that look alike come from different tables or passages of the source.

Assays:
[1] = tested on: nicotinic receptors mediating S-nicotine-evoked [^3H]DA release in rat striatal slices; test: Inhibition of S-nicotine-evoked [^3H]dopamine release from superfused rat striatal slices; assay type: cell-based; conditions: for inhibition at 0.1 µM: 1 h, read-out: [^3H]DA release, % inhibition of S-nicotine-evoked release
How it was run: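 Superfused rat striatal slices preloaded with 0.1 μM [3H]DA, in Krebs buffer with nomifensine and pargyline (10 μM each), 34 °C. Analogs (100 nM) given 60 min before 10 μM S-nicotine; tritium overflow by scintillation, inhibition expressed as percent of nicotine-evoked overflow without analog; full concentration-effect curves where […] given.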

[2] = biological target: T1, Rat Striatal Nicotinic Receptors ([^3H]NIC binding sites; α4β2) (Rattus norvegicus, UniProt P09483+P12390); test: Inhibition of [^3H]NIC binding
T1 construct: Whole brain, excluding cortex and cerebellum, was homogenized in 20 vol of ice-cold buffer; from tissue; host or cells: rat brain membranes (whole brain excluding cortex and cerebellum)
T1 sequence (P09483 31-630): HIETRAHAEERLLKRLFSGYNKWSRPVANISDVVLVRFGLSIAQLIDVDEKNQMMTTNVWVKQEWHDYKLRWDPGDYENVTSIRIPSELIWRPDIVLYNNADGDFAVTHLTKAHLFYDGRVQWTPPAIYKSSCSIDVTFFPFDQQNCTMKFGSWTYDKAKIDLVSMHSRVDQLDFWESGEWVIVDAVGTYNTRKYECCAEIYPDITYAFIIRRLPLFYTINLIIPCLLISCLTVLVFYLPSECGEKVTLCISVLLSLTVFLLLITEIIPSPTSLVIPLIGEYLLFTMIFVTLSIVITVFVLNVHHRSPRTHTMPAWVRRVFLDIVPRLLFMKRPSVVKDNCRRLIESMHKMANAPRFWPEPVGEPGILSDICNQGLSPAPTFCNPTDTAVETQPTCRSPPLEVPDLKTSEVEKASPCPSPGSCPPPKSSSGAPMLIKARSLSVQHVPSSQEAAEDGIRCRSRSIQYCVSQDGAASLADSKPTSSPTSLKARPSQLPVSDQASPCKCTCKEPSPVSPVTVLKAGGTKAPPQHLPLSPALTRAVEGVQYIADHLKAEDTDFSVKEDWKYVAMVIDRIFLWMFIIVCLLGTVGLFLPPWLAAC
T1 sequence (P12390 25-500): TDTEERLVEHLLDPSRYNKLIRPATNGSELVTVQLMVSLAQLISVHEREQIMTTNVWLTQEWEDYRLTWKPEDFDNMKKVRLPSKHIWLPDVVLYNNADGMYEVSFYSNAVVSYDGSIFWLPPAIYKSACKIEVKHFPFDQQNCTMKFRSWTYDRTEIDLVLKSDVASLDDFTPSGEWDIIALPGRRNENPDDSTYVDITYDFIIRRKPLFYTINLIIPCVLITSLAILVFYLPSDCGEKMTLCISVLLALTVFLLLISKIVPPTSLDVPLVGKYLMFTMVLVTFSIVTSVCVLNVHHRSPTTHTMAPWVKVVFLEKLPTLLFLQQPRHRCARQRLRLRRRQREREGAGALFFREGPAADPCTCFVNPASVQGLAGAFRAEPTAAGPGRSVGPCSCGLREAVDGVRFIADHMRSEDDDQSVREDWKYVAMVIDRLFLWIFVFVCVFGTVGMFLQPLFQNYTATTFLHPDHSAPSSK

[3] = biological target: T2, Rat Striatal Nicotinic Receptors ([^3H]MLA binding sites; α7) (Rattus norvegicus, UniProt Q05941); test: Inhibition of [^3H]MLA (methyllycaconitine) binding
T2 construct: Whole brain, excluding cortex and cerebellum, was homogenized in 20 vol of ice-cold buffer; from tissue; host or cells: rat brain membranes (whole brain excluding cortex and cerebellum)
T2 sequence (Q05941 23-502): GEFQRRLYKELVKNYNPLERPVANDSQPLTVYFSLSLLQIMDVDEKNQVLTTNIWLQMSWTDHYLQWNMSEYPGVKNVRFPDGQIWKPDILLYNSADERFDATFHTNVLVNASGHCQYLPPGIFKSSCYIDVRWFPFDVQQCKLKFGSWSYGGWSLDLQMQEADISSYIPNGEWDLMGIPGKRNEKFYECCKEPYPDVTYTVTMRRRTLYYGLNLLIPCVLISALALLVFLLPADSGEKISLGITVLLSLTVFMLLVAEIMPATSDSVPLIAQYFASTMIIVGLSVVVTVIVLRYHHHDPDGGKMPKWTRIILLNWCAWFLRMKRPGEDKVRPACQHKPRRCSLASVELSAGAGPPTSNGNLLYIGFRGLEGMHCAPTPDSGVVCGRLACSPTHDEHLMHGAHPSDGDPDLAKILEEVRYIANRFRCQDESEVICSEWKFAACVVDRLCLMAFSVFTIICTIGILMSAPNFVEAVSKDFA
How it was run: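 Rat brain membranes were washed by repeated centrifugation at 25,000 g, with a 10 min incubation at 37° C. in between. Samples of 250 μl, containing 100-140 μg of membrane protein, 3 nM [^3H]-methyllycaconitine and test analog in 50 mM Tris assay buffer, were incubated in 96-well plates for 60 min at room temperature. Nonspecific binding was defined with 10 μM S-nicotine. Bound radioactivity was collected on polyethylenimine-soaked GF/B filter plates and counted on a TopCount.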

[4] = 100 nM analog superfused 60 min before NIC 10 μM, rat striatal slices
[5] = full concentration effect, 3 nM [^3H]NIC, nonspecific 10 μM cytisine, rat brain membranes, read-out: [^3H]NIC binding, Ki
[6] = full concentration effect, [^3H]MLA, nonspecific S-nicotine, rat brain membranes, read-out: [^3H]MLA binding, Ki

SMILES	inhibition at 0.1 µM [1, 4] [%]	Ki [2, 5] [µM]	Ki [3, 6] [µM]	IC50 ([1]; NIC 10 μM, rat striatal slices) [µM]	Ki [2] [µM]	Ki [3] [µM]	inhibition at 0.1 µM ([1]; Rattus norvegicus) [%]
Cc1cc[n+](CCCCc2ccc(CCCC[n+]3ccc(C)cc3)cc2)cc1 [Example 13, N,N′-[1,4-phenylenedi-(4-butanyl)]-bis-(4-methylpyridinium)dibromide]	32	> 100	> 100	–	–	–	–
Cc1cccc[n+]1CCCCC#CC#CCCCC[n+]1ccccc1C [Example 91, N,N′-(5,7-dodecadiyn-1,12-diyl)-bis-(2-methylpyridinium)dichloride]	6	4.4	23.9	–	–	–	–
Cc1cc(C)c[n+](CCCCC#CC#CCCCC[n+]2cc(C)cc(C)c2)c1 [Example 95, N,N′-(5,7-dodecadiyn-1,12-diyl)-bis-(3,5-dimethylpyridinium)dichloride]	–	–	–	> 1	> 100	25.6	–
Cc1cc[n+](CCCCC#CC#CCCCC[n+]2ccc(C)c(C)c2)cc1C [Example 94, N,N′-(5,7-dodecadiyn-1,12-diyl)-bis-(3,4-dimethylpyridinium)dichloride]	21	8.6	24.1	–	–	–	–
Cc1cc[n+](CCCC/C=C\C=C/CCCC[n+]2ccc(C)cc2)cc1 [Example 4, cis-cis-N,N′-(dodeca-5,7-diene-1,12-diyl)-bis-(4-methyl-pyridinium)dibromide]	58	> 100	–	–	–	> 100	–
CN1CCC[C@@H]1c1ccc[n+](CCCCc2ccc(CCCC[n+]3cccc([C@H]4CCCN4C)c3)cc2)c1 [Example 10, N,N′-[1,4-phenylenedi-(4-butanyl)]-bis-[3-(2′-S-1-methyl-pyrrolidin-2-yl)-pyridinium]dibromide]	17	0.63	> 100	–	–	–	–
Cc1ccc[n+](CCCCC#CC#CCCCC[n+]2cccc(C)c2)c1 [Example 92, N,N′-(5,7-dodecadiyn-1,12-diyl)-bis-(3-methylpyridinium)dichloride]	18	–	–	–	6.36	> 100	–
Cc1ccc[n+](CCC#Cc2ccc(C#CCC[n+]3cccc(C)c3)cc2)c1 [Example 97, N,N′-[(1,4-phenylene)-bis-(4-butynyl)]-bis-(3-methyl-pyridinium)dibromide]	21	2.75 ± 0.4	> 100	–	–	–	–
C(#Cc1ccc(C#CCC[n+]2ccc3c(c2)CCCC3)cc1)CC[n+]1ccc2c(c1)CCCC2 [Example 99, N,N′-[(1,4-phenylene)-bis-(4-butynyl)]-bis-(5,6,7,8-tetrahydroisoquiolinium)dibromide]	14	8.04	0.87	–	–	–	–
CN1CCC[C@H]1c1ccc[n+](CCCC/C=C\C=C/CCCC[n+]2cccc([C@@H]3CCCN3C)c2)c1 [Example 1, cis-cis-N,N′-(dodeca-5,7-diene-1,12-diyl)-bis-[3-(2′-S-1-methyl-pyrrolidin-2-yl)-pyridinium]dibromide]	–	1.09	> 100	–	–	–	11
Cc1cccc[n+]1CCCCc1ccc(CCCC[n+]2ccccc2C)cc1 [Example 11, N,N′-[1,4-phenylenedi-(4-butanyl)]-bis-(2-methylpyridinium)dibromide]	37	5.94	> 100	–	–	–	–
